# Legend:
# human MCT2 = biological target: T1, human MCT2 (Homo sapiens, UniProt O60669); assay: MCT filter binding assay, yeast membranes, radioligand specific binding; conditions: ~2.5 nM radioligand
# T1 construct: The full length open reading frame for human MCT2 was then subcloned into the S. cerevisiae expression plasmid, pACES14; made in house; host or cells: Saccharomyces cerevisiae BY4742 (jen1 deletion), membrane preparation; plasmid pACES14-hMCT2
# T1 sequence (O60669 1-478): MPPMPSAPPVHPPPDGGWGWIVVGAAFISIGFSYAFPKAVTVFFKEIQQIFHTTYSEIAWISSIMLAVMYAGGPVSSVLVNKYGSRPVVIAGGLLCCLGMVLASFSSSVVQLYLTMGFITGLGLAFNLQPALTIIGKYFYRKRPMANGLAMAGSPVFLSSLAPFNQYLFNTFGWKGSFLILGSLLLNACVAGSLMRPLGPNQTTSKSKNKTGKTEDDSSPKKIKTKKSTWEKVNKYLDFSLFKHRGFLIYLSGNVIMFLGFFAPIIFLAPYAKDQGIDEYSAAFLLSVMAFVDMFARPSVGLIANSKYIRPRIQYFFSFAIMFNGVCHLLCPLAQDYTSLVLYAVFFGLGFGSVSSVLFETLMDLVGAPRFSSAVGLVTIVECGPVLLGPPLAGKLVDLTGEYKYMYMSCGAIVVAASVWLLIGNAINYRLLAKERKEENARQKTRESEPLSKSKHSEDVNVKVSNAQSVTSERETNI
# Procedure: (§1) For yeast cells transformed with expression plasmids containing the human MCT 1-4 ORFs the ability of membrane preparations to bind radioligand was determined using a single ligand concentration/multi protein concentration binding assay. This generated an estimate of the amount of active binding protein present in each membrane preparation. The ligand concentration used will give an estimate of Bmax that is approximately 90% of the true value. 10 μl of ligand A, B or C that had been diluted 50 fold with assay buffer (50 mM HEPES, 0.1 mM EDTA, 0.15 M NaCl, pH 7.5, 0.5% BSA) was dispensed into wells of a polypropylene microtitre plate. This gives a final radiolabelled ligand concentration of ˜2.5 nM. […] The membranes were diluted to give a known amount/180 μl assay buffer. This is typically in the […] range. For the membranes with high binding site number a more dilute membrane preparation should be added. 180 μl of each membrane solution was then added to each well and incubated at 2 hours at room temperature with shaking. The membranes were harvested onto GF-B filter plates and washed with assay buffer without BSA, dried, scintillant added and counts detected using the relevant program for each ligand on a Packard Top Count plate reader.
# human MCT4 = biological target: T2, human MCT4 (Homo sapiens, UniProt O15427); assay: as above; conditions: ~2.5 nM radioligand
# T2 construct: from the full length copy and subcloned into the S. cerevisiae expression plasmid pACES14; made in house; host or cells: Saccharomyces cerevisiae BY4742 (jen1 deletion), membrane preparation; plasmid pACES14-hMCT4
# T2 sequence (O15427 1-465): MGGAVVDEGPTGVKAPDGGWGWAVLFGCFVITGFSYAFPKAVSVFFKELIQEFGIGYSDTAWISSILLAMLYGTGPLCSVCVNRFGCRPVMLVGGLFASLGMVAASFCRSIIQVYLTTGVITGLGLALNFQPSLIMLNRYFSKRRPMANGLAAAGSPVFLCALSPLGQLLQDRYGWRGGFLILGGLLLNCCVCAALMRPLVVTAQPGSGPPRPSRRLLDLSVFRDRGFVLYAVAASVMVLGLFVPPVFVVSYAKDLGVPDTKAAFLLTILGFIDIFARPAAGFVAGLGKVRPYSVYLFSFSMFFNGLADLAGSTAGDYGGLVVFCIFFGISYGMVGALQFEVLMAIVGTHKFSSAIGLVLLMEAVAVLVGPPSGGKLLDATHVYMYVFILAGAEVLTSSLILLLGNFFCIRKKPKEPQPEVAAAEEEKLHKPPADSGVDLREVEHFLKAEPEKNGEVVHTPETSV
# Procedure: as §1
structure (smiles),measurement,setting,value
"CC(C)Cc1nn(C)c(=O)c2c(SCCCO)n(Cc3ccccc3[125I])cc12 [Ligand A, 2,6-Dihydro-7-[(3-hydroxypropyl)thio]-6-[(2-[^125I]iodophenyl)methyl]-2-methyl-4-(2-methylpropyl)-1H-pyrrolo[3,4-d]pyridazin-1-one]",Specific binding (cpm) Average,human MCT2; MCT2 (2 ug),7286 cpm
same,Specific binding (cpm) Average,human MCT2; MCT2 (20 ug),14769 cpm
same,Specific binding (cpm) Average,human MCT4; MCT4 (2 ug),405 cpm
same,Specific binding (cpm) Average,human MCT4; MCT4 (20 ug),872 cpm
